The values below come from patent US5563155A, “Individual stereosiomers of 7-[3-(aminoalkyl)-1-pyrrolidinyl]-quinolones and naphthyridones as antibacterial agents” (Warner-Lambert Company, priority 1995, dated 1996).

Molecules are shown by their SMILES. ≈ marks a conversion by molar mass, not a printed value. Read-outs that look alike come from different tables or passages of the source.

A word on the NOAEL: it is the highest dose or exposure tested at which no adverse effect was seen.

Series [1] deals with Strep. pyogenes C-203. The experiment in a line: median protective dose in mice given lethal systemic infections, Strep. pyogenes C-203. Format: in vivo. As to conditions: Streptococcus pyogenes, single dose at time of challenge, read-out: median protective dose (PD50). The protocol: (§1) The in vivo activity is obtained when the compounds are tested according to the procedure of Miller, et al (Proc. Soc. Exp. Biol. Med. 57, 261, 1944). The median protective dose (PD50) was determined in mice given lethal systemic infections. Single doses of compound were given at time of challenge.
(§2) By use of the above methods, the following minimum inhibiting concentration values (MICs in μg/mL), PD50 's in mg/kg, no effect phototoxicity dose in mg/kg and the cytotoxicity IC50 in μg/mL were obtained for representative enantiomers of the invention and compounds of the prior art as shown in the table.
(§3) The in vivo data as PD50 s are reported below the line of MICs for the same compound.

In the next series the test system is Staph. aureus H 228. The experiment in a line: in vitro antibacterial activity, microtitration dilution (MIC), Staph. aureus H 228. The settings on record: Staphylococcus aureus, H228, read-out: minimum inhibiting concentration (MIC). It counts as cell-based. The essentials:
(§4)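 MIC determined in vitro by microtitration broth dilution; values reported in μg/mL.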

The test system of a further series is Staph. aureus UC-76. The experiment in a line: in vitro antibacterial activity, microtitration dilution (MIC), Staph. aureus UC-76. The settings on record: Staphylococcus aureus, UC76, read-out: minimum inhibiting concentration (MIC). Format: cell-based. The procedure, abridged:
as §4

Series [2] deals with Strep. pheumoniae SV-1. The experiment in a line: in vitro antibacterial activity, microtitration dilution (MIC), Strep. pneumoniae SV-1. Format: cell-based. The settings on record: Streptococcus pneumoniae, SV1, read-out: minimum inhibiting concentration (MIC). The essentials:
as §4

Another series deals with Prot. rettgeri M 1771. The experiment in a line: in vitro antibacterial activity, microtitration dilution (MIC), Prot. rettgeri M 1771. It counts as cell-based. The settings on record: Providencia rettgeri, M1771, read-out: minimum inhibiting concentration (MIC). The essentials: as §4
Another series concerns Strep. faecalis MGH-2. The experiment in a line: in vitro antibacterial activity, microtitration dilution (MIC), Strep. faecalis MGH-2. It counts as cell-based. The settings on record: Enterococcus faecalis, MGH2, read-out: minimum inhibiting concentration (MIC). The essentials: as §4
Series [3] has as its system Esch. coli Vogel. The experiment in a line: median protective dose in mice given lethal systemic infections, Esch. coli Vogel. It counts as in vivo. The settings on record: Escherichia coli, single dose at time of challenge, read-out: median protective dose (PD50). The protocol: as §1, §2, §3
Series [4] deals with Strep. pyogenes C-203. The experiment in a line: in vitro antibacterial activity, microtitration dilution (MIC), Strep. pyogenes C-203. Format: cell-based. The settings on record: Streptococcus pyogenes, C203, read-out: minimum inhibiting concentration (MIC). The essentials:
as §4

The test system of the next series is Klebs. pneumoniae MGH-2. The experiment in a line: in vitro antibacterial activity, microtitration dilution (MIC), Klebs. pneumoniae MGH-2. It counts as cell-based. As to conditions: Klebsiella pneumoniae, MGH2, read-out: minimum inhibiting concentration (MIC). The procedure, abridged:
as §4

The test system of another series is Ent. cloacae MA2646. The experiment in a line: in vitro antibacterial activity, microtitration dilution (MIC), Ent. cloacae MA2646. It counts as cell-based. The settings on record: Enterobacter cloacae, read-out: minimum inhibiting concentration (MIC). The procedure, abridged: as §4
For series [5], the system named is Esch. coli Vogel. The experiment in a line: in vitro antibacterial activity, microtitration dilution (MIC), Esch. coli Vogel. Format: cell-based. The settings on record: Escherichia coli, read-out: minimum inhibiting concentration (MIC). The essentials:
as §4

In the next series the test system is Pseud. aeruginosa UI-18. The experiment in a line: in vitro antibacterial activity, microtitration dilution (MIC), Pseud. aeruginosa UI-18. Format: cell-based. The settings on record: Pseudomonas aeruginosa, UI18, read-out: minimum inhibiting concentration (MIC). The essentials:
as §4

Series [6] in a line: cytotoxicity, hamster V-79 cells, colony reduction. The settings on record: 3 hours treatment, colonies counted after 5 days, read-out: Cytotox (cytotoxicity IC50). Format: cell-based. As for the experimental part:
The cytotoxicity data is obtained using hamster V-79 cells. The cells were suspended in tissue culture medium and grown overnight. Cells were treated with drug for 3 hours, washed free of drug and then replated, and the colonies counted after 5 days. The concentration of drug that reduced colones by 50% relative to control was recorded.
as §2

Another series is described as follows: in vivo. Also on record: species or system mice. The settings on record: mouse, po. The protocol: The phototoxicity data is obtained using depilated mice. The compound was administered orally each day for four successive days, followed each day by 3 hours of UVA radiation. The mice were examined for any positive signs (redness, erythema) relative to control animals. The no effect dose and the 50% effect dose were determined. By use of the above methods, the following minimum inhibiting concentration values (MICs in μg/mL), PD50 's in mg/kg, no effect phototoxicity dose in mg/kg and the cytotoxicity IC50 in μg/mL were obtained for representative enantiomers of the invention and compounds of the prior art as shown in the table.

The subject of series [7] is Strep. pheumoniae SV-1. The experiment in a line: median protective dose in mice given lethal systemic infections, Strep. pneumoniae SV-1. The settings on record: Streptococcus pneumoniae, single dose at time of challenge, read-out: median protective dose (PD50). Format: in vivo. As for the experimental part:
as §1, §2, §3

`CN[C@H](C)[C@@H]1CCN(c2nc3c(cc2F)c(=O)c(C(=O)O)cn3C2CC2)C1` [Example 22, 3R,1R-1-cyclopropyl-6-fluoro-7-[3-(1-N-methylaminoethyl)-1-pyrrolidinyl]-1,4-dihydro-4-oxo-1,8-naphthyridine-3-carboxylic acid]: the ED50 in the series with Strep. pyogenes C-203 [1] (C203, PO) stood at 8 mg/kg; with Strep. pyogenes C-203 [1] (C203, SC), 5 mg/kg; with Esch. coli Vogel [3] (PO), 4.6 mg/kg; in the series with Esch. coli Vogel [3] (SC) it was 1.2 mg/kg. Also, the MIC in the series on Staph. aureus H 228 came out at 0.1 µg/mL (≈ 0.267 µM); in the series with Staph. aureus UC-76 it was 0.05 µg/mL (≈ 0.134 µM); in the series with Strep. pheumoniae SV-1 [2] it was 0.05 µg/mL (≈ 0.134 µM); in the series on Prot. rettgeri M 1771, 0.4 µg/mL (≈ 1.07 µM); in the series on Strep. faecalis MGH-2, 0.025 µg/mL (≈ 0.0668 µM); in the series on Strep. pyogenes C-203 [4], 0.05 µg/mL (≈ 0.134 µM). The MIC in the series with Klebs. pneumoniae MGH-2 came to 0.2 µg/mL (≈ 0.534 µM); in the series on Ent. cloacae MA2646, 0.1 µg/mL (≈ 0.267 µM); in the series on Esch. coli Vogel [5] it was 0.1 µg/mL (≈ 0.267 µM); in the series with Pseud. aeruginosa UI-18, 1.6 µg/mL (≈ 4.27 µM). For the same compound, in series [6], the CC50 at 3 h was 88 µg/mL (≈ 235 µM).
On to `C[C@@H]([C@@H]1CCN(c2cc3c(cc2F)c(=O)c(C(=O)O)cn3C2CC2)C1)N(C)C` [Example 73], for which the ED50 is 4 mg/kg in the series with Strep. pyogenes C-203 [1] (C203, PO); 4 mg/kg with Strep. pyogenes C-203 [1] (C203, SC); 5 mg/kg in the series on Esch. coli Vogel [3] (PO); 4 mg/kg with Esch. coli Vogel [3] (SC). Also, the MIC was determined as 0.1 µg/mL (≈ 0.258 µM) in the series with Staph. aureus H 228; 0.05 µg/mL (≈ 0.129 µM) with Staph. aureus UC-76; 0.05 µg/mL (≈ 0.129 µM) in the series with Strep. pheumoniae SV-1 [2]; 0.8 µg/mL (≈ 2.06 µM) with Prot. rettgeri M 1771; 0.1 µg/mL (≈ 0.258 µM) in the series on Strep. faecalis MGH-2; 0.05 µg/mL (≈ 0.129 µM) with Strep. pyogenes C-203 [4]. For the same compound, the MIC in the series on Klebs. pneumoniae MGH-2 stood at 0.2 µg/mL (≈ 0.516 µM); with Ent. cloacae MA2646, 0.2 µg/mL (≈ 0.516 µM); with Esch. coli Vogel [5], 0.1 µg/mL (≈ 0.258 µM); in the series on Pseud. aeruginosa UI-18, 1.6 µg/mL (≈ 4.13 µM). The NOAEL at 96 h in the series “in vivo” was < 30 mg/kg.
`C[C@H](N)[C@H]1CCN(c2cc3c(cc2F)c(=O)c(C(=O)O)cn3C2CC2)C1` [Example 2, 3S,1S-1-cyclopropyl-6-fluoro-7-[3-(1-aminoethyl)-1-pyrrolidinyl]-1,4-dihydro-4-oxo-3-quinolinecarboxylic acid]: the MIC in the series with Staph. aureus H 228 stood at 0.8 µg/mL (≈ 2.23 µM); with Staph. aureus UC-76, 0.1 µg/mL (≈ 0.278 µM); in the series with Strep. pheumoniae SV-1 [2], 0.2 µg/mL (≈ 0.556 µM); in the series on Prot. rettgeri M 1771 it was 0.8 µg/mL (≈ 2.23 µM); with Strep. faecalis MGH-2, 0.4 µg/mL (≈ 1.11 µM); in the series on Strep. pyogenes C-203 [4] it was 0.1 µg/mL (≈ 0.278 µM). Moreover, the MIC in the series on Klebs. pneumoniae MGH-2 was 0.4 µg/mL (≈ 1.11 µM); in the series on Ent. cloacae MA2646, 0.2 µg/mL (≈ 0.556 µM); with Esch. coli Vogel [5], 0.2 µg/mL (≈ 0.556 µM); in the series on Pseud. aeruginosa UI-18, 1.5 µg/mL (≈ 4.17 µM). For the same compound, the ED50 is > 100 mg/kg in the series with Strep. pheumoniae SV-1 [7] (SV1, PO); 12 mg/kg in the series on Strep. pheumoniae SV-1 [7] (SV1, SC); 100 mg/kg in the series on Esch. coli Vogel [3] (PO); 4 mg/kg in the series with Esch. coli Vogel [3] (SC). In addition, the CC50 at 3 h in series [6] was 160 µg/mL (≈ 445 µM).
For `C[C@@H](N)[C@H]1CCN(c2cc3c(cc2F)c(=O)c(C(=O)O)cn3C2CC2)C1` [Example 1, 3S,1R-1-cyclopropyl-6-fluoro-7-[3-(1-aminoethyl)-1-pyrrolidinyl]-1,4-dihydro-4-oxo-3-quinolinecarboxylic acid], the MIC in the series with Staph. aureus H 228 came out at 0.4 µg/mL (≈ 1.11 µM); in the series with Staph. aureus UC-76, 0.05 µg/mL (≈ 0.139 µM); in the series with Strep. pheumoniae SV-1 [2] it was 0.1 µg/mL (≈ 0.278 µM); in the series with Prot. rettgeri M 1771 it was 0.8 µg/mL (≈ 2.23 µM); in the series on Strep. faecalis MGH-2, 0.2 µg/mL (≈ 0.556 µM); in the series on Strep. pyogenes C-203 [4], 0.1 µg/mL (≈ 0.278 µM). Besides, the MIC worked out at 0.4 µg/mL (≈ 1.11 µM) with Klebs. pneumoniae MGH-2, 0.2 µg/mL (≈ 0.556 µM) with Ent. cloacae MA2646, 0.2 µg/mL (≈ 0.556 µM) with Esch. coli Vogel [5] and 1.5 µg/mL (≈ 4.17 µM) in the series on Pseud. aeruginosa UI-18. The ED50 was > 100 mg/kg in the series with Strep. pheumoniae SV-1 [7] (SV1, PO); 3 mg/kg in the series with Strep. pheumoniae SV-1 [7] (SV1, SC); 35 mg/kg with Esch. coli Vogel [3] (PO); 2 mg/kg in the series with Esch. coli Vogel [3] (SC). Further, in series [6], the CC50 at 3 h is 160 µg/mL (≈ 445 µM).
In the case of `C[C@H](N)[C@@H]1CCN(c2cc3c(cc2F)c(=O)c(C(=O)O)cn3C2CC2)C1` [Example 3, 3R,1S-1-cyclopropyl-6-fluoro-7-[3-(1-aminoethyl)-1-pyrrolidinyl]-1,4-dihydro-4-oxo-3-quinolinecarboxylic acid], the MIC in the series with Staph. aureus H 228 stood at 0.05 µg/mL (≈ 0.139 µM); with Staph. aureus UC-76, 0.003 µg/mL (≈ 0.00835 µM); with Strep. pheumoniae SV-1 [2], 0.003 µg/mL (≈ 0.00835 µM); in the series on Prot. rettgeri M 1771 it was 0.2 µg/mL (≈ 0.556 µM); in the series with Strep. faecalis MGH-2, 0.025 µg/mL (≈ 0.0696 µM); in the series on Strep. pyogenes C-203 [4], 0.003 µg/mL (≈ 0.00835 µM). Further, the MIC in the series on Klebs. pneumoniae MGH-2 was 0.1 µg/mL (≈ 0.278 µM); with Ent. cloacae MA2646, 0.05 µg/mL (≈ 0.139 µM); in the series with Esch. coli Vogel [5], 0.05 µg/mL (≈ 0.139 µM); with Pseud. aeruginosa UI-18 it was 0.4 µg/mL (≈ 1.11 µM). The ED50 with Strep. pheumoniae SV-1 [7] (SV1, PO) came out at 11 mg/kg; with Strep. pheumoniae SV-1 [7] (SV1, SC) it was 0.7 mg/kg; in the series with Esch. coli Vogel [3] (PO) it was 47 mg/kg; in the series with Esch. coli Vogel [3] (SC), 0.9 mg/kg. Also, in series [6], the CC50 at 3 h came out at 42 µg/mL (≈ 117 µM).
